In publication PMC9818988, “SR Protein Kinase 1 Inhibition by TAF15” (Cells, 2022):

Experiments:
[1] = system: SRPK1; assay: In vitro kinase inhibition assay: phosphorylation of GST-LBRNt(62–92) by GST-SRPK1; type: biochemical; details: for Inhibition of SRPK1 activity (phosphorylation of GST-LBRNt(62–92) by GST-SRPK1): peptide 0.1, 0.2, 0.3, 0.4 and 0.5 mM, 25 μM ATP, autoradiography, bands counted, means ± SE of two independent experiments (Figure 8); for Inhibition of SRPK1 activity (phosphorylation of GST-LBRNt(62–92) by GST-SRPK1) / Effect of TAF15 fusion proteins on SRPK1 activity (phosphorylation of GST-LBRNt(62–92)): 30 °C, 30 min; for Relative inhibitory activity on SRPK1 among the three RGG peptides (proportional to number of RGG repeats): peptide 0.1–0.5 mM, substrate GST-LBRNt(62–92), two independent experiments (Figure 8B); for Effect of TAF15 fusion proteins on SRPK1 activity (phosphorylation of GST-LBRNt(62–92)): 1, 2, 4, 6, 8 μg GST-TAF15, 1.5, 3, 6, 10, 15 μg GST-TAF15-RGG, 2, 4, 8, 12, 16 μg GST-TAF15(1-320), 25 μL, [γ-32P]ATP, Cherenkof counting, two independent experiments
Protocol: (§1) Kinase assays were carried out at 30 °C in a total volume of 25 μL containing 12 mM Hepes pH 7.5, 10 mM MgCl2, 25 μM ATP, 1–3 μg of the appropriate substrate (GST-LBRNt(62–92) or GST-TAF15 or His-TAF15), and 1–2 μg GST-SRPK1. For the inhibition assays, GST-SRPK1 was incubated with GST-LBRNt(62–92) under the assay conditions in the presence of increasing concentrations of GST-TAF15, GST-TAF15-RGG, and GST-TAF15(1–320) or Nucl, SAFA, and A2B1 peptides, as indicated. Nucl ([…]), SAFA ([…]) and A2B1 ([…]) peptides, comprising the RGG repeats of nucleolin, HNRPU (SAFA), and HNRNPA2B1, respectively, were provided by GeneCust, Boynes, France. The samples were incubated for 30 min, and the reaction was stopped by adding 6 μL of 5 × SDS sample buffer and heating at 95 °C for 3 min. Phosphoproteins were detected via autoradiography using Super RX (a Fuji medical X-ray film), and signals were quantified by excising the radioactive bands from the gel and scintillation counting. p-values were determined using a two-tailed, unpaired student’s t-test.

[2] = system: SRPK1; assay: In vitro phosphorylation of TAF15 as substrate by GST-SRPK1; type: biochemical; details: bacterially produced GST-SRPK1; GST-LBRNt(62–92) as positive substrate; autoradiography
Protocol: as §1

[3] = system: SRPK1; assay: Pull-down of His-TAF15 with GST-SRPK1 immobilized on glutathione-Sepharose beads; type: binding; details: 60 min, room temperature, Coomassie blue staining
Protocol: Incubation of GST and GST-SRPK1 (2–3 μg each) immobilized on glutathione-Sepharose beads with His-TAF15 (2 μg) was performed in 20 mm Hepes, pH 7.5, 50 mM NaCl, and 1% Triton X-100 in a total volume of 0.5 mL. Similar incubations were also performed in the presence of 150 and 300 mM NaCl to test the stringency of the interaction. The incubations were carried out for 60 min at room temperature. The beads were harvested, washed three times with 500 μL of binding buffer, and resuspended in 25 μL of SDS sample buffer. Bound His-TAF15 was analyzed on 10% SDS-polyacrylamide gels and detected by Coomassie Blue staining.

[4] = system: SRPK1; assay: Pull-down of SRPK1 from HeLa cell extracts with immobilized GST-TAF15 fusion proteins; type: binding; details: 150 mM NaCl, 1% Triton X-100, 60 min, room temperature; Western blot with anti-SRPK1
Protocol: Incubation of GST, GST-TAF15, GST-TAF15(1–320), and GST-TAF15-RGG (2–3 μg each) immobilized on glutathione-Sepharose beads with HeLa cell extracts (∼200 μg of total protein) was performed in 50 mm Tris-HCl, pH 7.5, 150 mm NaCl, 1% Triton X-100, and 0.5 mm PMSF (cell extraction buffer) in a total volume of 0.5 mL for 60 min at room temperature. Bound SRPK1 was analyzed on 10% SDS-polyacrylamide gels and detected by Western blotting using the anti-SRPK1 monoclonal antibody (611072, BD Biosciences, San Jose, CA, USA), an alkaline phosphatase-coupled goat anti-mouse secondary antibody, and a 5-bromo-4-chloro-3-indolyl phosphate/nitro blue tetrazolium substrate.

RGGNFGFGDSRGGGGNFGPGPGSNFRGG [A2B1, peptide comprising the RGG repeats of HNRNPA2B1, provided by GeneCust]
Inhibition of SRPK1 activity (phosphorylation of GST-LBRNt(62–92) by GST-SRPK1) [1]: could inhibit SRPK1 | Relative inhibitory activity on SRPK1 among the three RGG peptides (proportional to number of RGG repeats) [1]: weaker

RGGGHRGRGGFNMRGGNFRGGAPGNRGGY [SAFA, peptide comprising the RGG repeats of HNRPU (SAFA), provided by GeneCust]
Inhibition of SRPK1 activity (phosphorylation of GST-LBRNt(62–92) by GST-SRPK1) [1]: could inhibit SRPK1

GST-TAF15: full-length TAF15 as GST-fusion protein produced in bacteria
Effect of TAF15 fusion proteins on SRPK1 activity (phosphorylation of GST-LBRNt(62–92)) [1]: inhibited the phosphorylation of GST-LBRNt(62–92) in a dose-responsive manner | Phosphorylation of TAF15 by SRPK1 (substrate test) [2]: did not modify

His-TAF15: full-length TAF15 with an 8xHis tag fused to its N-terminus
Binding of TAF15 to GST-SRPK1 in pull-down ([3]; increased salt, 0.3 M NaCl): reduced binding | Binding of TAF15 to GST-SRPK1 in pull-down ([3]; physiological ionic strength, 50–150 mM NaCl): binds SRPK1 | Phosphorylation of TAF15 by SRPK1 (substrate test) [2]: unable to phosphorylate

GST-TAF15-RGG: C-terminal RGG domain (aa 319–589) of TAF15 as GST-fusion protein
Effect of TAF15 fusion proteins on SRPK1 activity (phosphorylation of GST-LBRNt(62–92)) [1]: inhibited SRPK1 as potently as full-length TAF15 | Binding of SRPK1 from HeLa cell extracts to immobilized GST fusion protein [4]: could bind to SRPK1

RGGGRGGFGGRGGGRGGRGGFGGRGRGGFGGRGGFRGGRGG [Nucl, peptide comprising the RGG repeats of nucleolin, provided by GeneCust]
Inhibition of SRPK1 activity (phosphorylation of GST-LBRNt(62–92) by GST-SRPK1) [1]: could inhibit SRPK1 | Relative inhibitory activity on SRPK1 among the three RGG peptides (proportional to number of RGG repeats) [1]: most potent inhibitory activity

B1: GST-TAF15(1–320): N-terminal part (aa 1–320) of TAF15 as GST-fusion protein (protein)
chain: MSDSGSYGQSGGEQQSYSTYGNPGSQGYGQASQSYSGYGQTTDSSYGQNYSGYSSYGQSYSQSYGGYENQKQSSYSQQPYNNQGQQQNMESSGSQGGRAPSYDQPDYGQQDSYDQQSGYDQHQGSYDEQSNYDQQHDSYSQNQQSYHSQRENYSHHTQDDRRDVSRYGEDNRGYGGSQGGGRGRGGYDKDGRGPMTGSSGGDRGGFKNFGGHRDYGPRTDADSESDNSDNNTIFVQGLGEGVSTDQVGEFFKQIGIIKTNKKTGKPMINLYTDKDTGKPKGEATVSFDDPPSAKAAIDWFDGKEFHGNIIKVSFATRRPE
modifications: left off: GST, end not stated, kept
notes: N-terminal part (aa 1–320) of TAF15 as GST-fusion protein
Effect of TAF15 fusion proteins on SRPK1 activity (phosphorylation of GST-LBRNt(62–92)) [1]: did not affect the kinase activity | Effect of TAF15 fusion proteins on SRPK1 activity (phosphorylation of GST-LBRNt(62–92)) ([1]; listed as GST-TAF15(1-320)): has no effect on SRPK1 activity | Binding of SRPK1 from HeLa cell extracts to immobilized GST fusion protein [4]: no such interaction
